Test systems include MALME-3M melanoma; HCT-15 colon; SF-539 CNS; NCI-H460 lung; HCT-116 colon; COLO 205 colon; K-562 leukemia; CAKI-1 renal; SK-MEL-5 melanoma; MCF7 breast.
Holding throughout (assay): DTP human tumour cell line panel, 48 h

16 molecules from PubChem BioAssay (NCI) can be followed below.

Several values for one entry are separate records, joined by “and”; a condition that tells them apart may be missing. Identical values can stand only once.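 Each compound was tested at five concentrations against cells in 96-well plates for 48 hours. The concentration for 50% growth inhibition is given as GI50. TGI marks complete inhibition of growth.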

On to `NC1=C(NC(=O)Cc2ccccc2F)C(=O)c2ccccc2C1=O`, for which the TGI (usually the concentration giving total growth inhibition) with MALME-3M melanoma was 50.9 µM; with HCT-15 colon, above 100 µM; in the experiment with SF-539 CNS, 62 µM; in the experiment with NCI-H460 lung, above 100 µM; with HCT-116 colon it was above 100 µM; with COLO 205 colon, above 100 µM. The TGI with K-562 leukemia and in the experiment on CAKI-1 renal was above 100 µM in each case.

For `CC1=Nc2c(ccc3c2C(=O)c2ccccc2C3=O)NC(c2cccc3c2CCC3)C1` (centres undefined), the TGI in the experiment on MALME-3M melanoma, in the experiment with HCT-15 colon, in the experiment with SF-539 CNS, with NCI-H460 lung, in the experiment on HCT-116 colon and in the experiment with COLO 205 colon was above 100 µM in each case. In addition, the figures for the TGI in the experiment with K-562 leukemia, in the experiment with SK-MEL-5 melanoma and in the experiment on CAKI-1 renal were above 100 µM, above 100 µM and above 96.8 µM, respectively.

With `CN(Cc1cnc2nc(N)nc(N)c2n1)c1ccc(C(=O)N[C@@H](CCC(=O)O)C(=O)O)cc1`, the TGI in the experiment on MALME-3M melanoma was above 250 µM; with HCT-15 colon it was above 250 µM; with NCI-H460 lung, above 245 µM; in the experiment with MCF7 breast, above 250 µM; in the experiment on COLO 205 colon it was 249 µM and > 250 µM; in the experiment with K-562 leukemia, 206 µM and > 250 µM. Besides, the total growth inhibition concentration (TGI) in the experiment on SK-MEL-5 melanoma is 179 µM and > 250 µM; with CAKI-1 renal, 200 µM and > 250 µM. Further, the GI50 (in general, the concentration giving 50% growth inhibition) in the experiment on NCI-H460 lung was 7.07 nM.

For `O=C1c2cc(Cl)ccc2NC(=NC2CCCC2)C2CSCN12` (centres undefined), the TGI in the experiment with MALME-3M melanoma, in the experiment with HCT-15 colon, with NCI-H460 lung, in the experiment with HCT-116 colon, with MCF7 breast and in the experiment with COLO 205 colon was above 100 µM throughout. Besides, the TGI with K-562 leukemia, with SK-MEL-5 melanoma and with CAKI-1 renal was above 100 µM throughout.

On to `CC(=O)OC12C3C4C1C1C2C3C41OC(C)=O` (centres undefined), for which the TGI with HCT-15 colon, in the experiment with SF-539 CNS, in the experiment with NCI-H460 lung, in the experiment on HCT-116 colon, in the experiment on MCF7 breast and in the experiment on COLO 205 colon was above 100 µM each time. In addition, the TGI in the experiment on K-562 leukemia, with SK-MEL-5 melanoma and in the experiment on CAKI-1 renal was above 100 µM throughout.

Regarding `CO/N=C(/C)c1cccc(Nc2nc3ccccc3c3[nH]c4ccccc4c23)c1`, the TGI in the experiment with HCT-15 colon amounted to 23.6 µM; in the experiment with SF-539 CNS, 28.1 µM; in the experiment on NCI-H460 lung, 11.3 µM; in the experiment with HCT-116 colon, 14 µM; with MCF7 breast, 19.9 µM; in the experiment on COLO 205 colon, 20.3 µM. For the same molecule, the total growth inhibition concentration (TGI) in the experiment with K-562 leukemia is above 100 µM; in the experiment on SK-MEL-5 melanoma, 18.2 µM; in the experiment on CAKI-1 renal, 24.2 µM.

Turning to `CCOC(=O)c1nnsc1N/N=C\c1ccc([N+](=O)[O-])cc1`, the TGI in the experiment on MALME-3M melanoma, in the experiment on HCT-15 colon, with NCI-H460 lung, in the experiment on HCT-116 colon, in the experiment on MCF7 breast and with COLO 205 colon was above 100 µM in each case. Also, the TGI in the experiment on K-562 leukemia and in the experiment with SK-MEL-5 melanoma was above 100 µM each time.

Consider `O=C(O)CCC(=O)c1ccc2c(c1)C(C(=O)O)CC2` (centres undefined), for which the TGI in the experiment on MALME-3M melanoma is above 100 µM; in the experiment on HCT-15 colon it was above 100 µM; with SF-539 CNS, above 100 µM; with NCI-H460 lung, above 100 µM; with HCT-116 colon, 2.25 µM; with MCF7 breast it was above 100 µM. Further, the TGI in the experiment on COLO 205 colon, in the experiment with K-562 leukemia and in the experiment on SK-MEL-5 melanoma was above 100 µM in each case.

In the case of `Cc1ccc(SC2C(=O)C3CC(OCc4ccccc4)C2(C)C3(C)C)cc1` (centres undefined), the TGI in the experiment on MALME-3M melanoma, with HCT-15 colon, in the experiment with SF-539 CNS, in the experiment on NCI-H460 lung, in the experiment with HCT-116 colon and in the experiment on MCF7 breast was above 100 µM throughout. The TGI in the experiment with K-562 leukemia and in the experiment with SK-MEL-5 melanoma was above 100 µM throughout.

In the case of `CCOC(=O)c1c(N=P(c2ccccc2)(c2ccccc2)c2ccccc2)nnc(-c2ccccc2)c1-c1ccccc1`, the TGI in the experiment with MALME-3M melanoma, with HCT-15 colon, in the experiment on SF-539 CNS, in the experiment on NCI-H460 lung, with HCT-116 colon and with MCF7 breast was above 100 µM in each case. In addition, the TGI with COLO 205 colon, in the experiment on K-562 leukemia and in the experiment on SK-MEL-5 melanoma was above 100 µM in each case.

Regarding `COc1ccc(-n2[nH]nc(C(N)=O)c2=O)cc1`, the concentration for total growth inhibition (TGI) in the experiment on MALME-3M melanoma, in the experiment with HCT-15 colon, with NCI-H460 lung, in the experiment with HCT-116 colon, with MCF7 breast and in the experiment with COLO 205 colon was above 100 µM in each case. The TGI in the experiment with K-562 leukemia, with SK-MEL-5 melanoma and in the experiment on CAKI-1 renal was above 100 µM each time.

Regarding `CC(C)(C)OC(=O)N(CCCCNC(=O)OCc1ccccc1)CCCNC(=O)OCc1ccccc1`, the TGI in the experiment on HCT-15 colon, in the experiment on SF-539 CNS, in the experiment with NCI-H460 lung, in the experiment on HCT-116 colon, in the experiment with MCF7 breast and in the experiment on COLO 205 colon was above 100 µM each time. For the same molecule, the TGI is above 100 µM in the experiment on K-562 leukemia and 22.5 µM in the experiment on SK-MEL-5 melanoma.

In the case of `CC1(C)OC2[C@@H](CO[C@@]3([C@@H](O)CCO)OC(C)(C)O[C@@H]23)O1` (some centres undefined), the TGI in the experiment with HCT-15 colon, with SF-539 CNS, with NCI-H460 lung, in the experiment on HCT-116 colon, in the experiment on MCF7 breast and with COLO 205 colon was above 100 µM each time. Also, the TGI with K-562 leukemia, in the experiment with SK-MEL-5 melanoma and with CAKI-1 renal was above 100 µM in each case.

Consider `O=S(=O)(O)c1cc(N=Nc2c(O)ccc3ccccc23)ccc1/C=C/c1ccc(N=Nc2c(O)ccc3ccccc23)cc1S(=O)(=O)O`, for which the TGI with MALME-3M melanoma, with HCT-15 colon, in the experiment on HCT-116 colon, with COLO 205 colon, in the experiment on K-562 leukemia and with SK-MEL-5 melanoma was above 100 µM each time. Moreover, the total growth inhibition concentration (TGI) in the experiment on CAKI-1 renal was above 100 µM.

On to `CC1=C(C(=O)CC(=O)C(=O)Nc2cc(C)ccc2C)Sc2ccccc2N1`, for which the TGI with MALME-3M melanoma, in the experiment with HCT-15 colon, in the experiment on SF-539 CNS, with HCT-116 colon, in the experiment with K-562 leukemia and in the experiment on SK-MEL-5 melanoma was above 100 µM each time. Besides, the TGI in the experiment on CAKI-1 renal was above 100 µM.

In the case of `Cc1nc(CC#N)n[nH]1`, the TGI in the experiment with HCT-15 colon, in the experiment with SF-539 CNS, with HCT-116 colon, in the experiment on MCF7 breast, with COLO 205 colon and in the experiment on K-562 leukemia was above 100 µM each time. In the experiment on SK-MEL-5 melanoma, the TGI is above 100 µM.
